Assay results published in paper PMC8883573, “New Insights Into the Function of Flavohemoglobin in Mycobacterium tuberculosis: Role as a NADPH-Dependent Disulfide Reductase and D-Lactate-Dependent Mycothione Reductase” (Frontiers in Cellular and Infection Microbiology, 2022).

Target: T1, MtbFHb (Mycobacterium tuberculosis, UniProt Q7ARS9)
T1 construct: gene Rv0385
T1 sequence (Q7ARS9 entry or part of it): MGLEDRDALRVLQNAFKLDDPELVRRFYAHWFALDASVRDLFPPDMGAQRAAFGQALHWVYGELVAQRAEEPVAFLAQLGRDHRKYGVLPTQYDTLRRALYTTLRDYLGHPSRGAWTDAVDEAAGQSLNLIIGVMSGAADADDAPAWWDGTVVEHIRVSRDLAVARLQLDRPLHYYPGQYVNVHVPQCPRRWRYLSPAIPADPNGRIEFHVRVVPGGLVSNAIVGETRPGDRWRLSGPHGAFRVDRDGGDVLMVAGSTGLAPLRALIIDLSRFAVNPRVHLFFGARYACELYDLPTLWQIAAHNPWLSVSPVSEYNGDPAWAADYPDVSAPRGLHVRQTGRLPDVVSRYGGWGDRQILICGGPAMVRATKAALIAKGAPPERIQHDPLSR

SMILES: C[C@@H](O)C(=O)O [D-lactate]
- far-UV circular dichroism (conformational change): These results confirmed a conformational change in MtbFHb during its interaction with D-lactate
